The source of these data is US12509653B2, “Organ chip to model mammalian joint” (University of Pittsburgh—Of the Commonwealth System of …, priority 2017, dated 2025).

Assay [1] deals with chondrocytes and osteoblasts in the bioreactor. Nature of the assay: RT-PCR marker expression in cartilage and bone chambers of the bioreactor under hormone stimulation. The format is cell-based. Conditions: progesterone progressively added to estradiol (week 3 and 4); higher when hormones directly applied to cartilage. As for the experimental part: Differential expression of markers (as determined by RT-PCR) was evaluated in a control medium that contained no estrogen or progesterone (first bar), and then different concentrations of hormones supplied to the chambers during week 1 (w1: 0.1 nM estradiol), week 2 (w2: 1 nM estradiol), week 3 (w3: 1 nM estradiol and 10 nM progesterone), and week 4 (w4: 0.1 nM estradiol and 50 nM progesterone). Differential expression of markers was determined in a control medium that contained no estrogen or progesterone (first bar), and then different concentrations of hormones supplied to the cartilage chamber during week 1 (w1: 0.1 nM estradiol), week 2 (w2: 1 nM estradiol), week 3 (w3: 1 nM estradiol and 10 nM progesterone), and week 4 (w4: 0.1 nM estradiol and 50 nM progesterone).

In assay [2] the test system is synovial cells (SM). Nature of the assay: IL-1β stimulation of synovial cells in the microJoint (OA model), gene expression. The format is cell-based, human. Conditions: 10 ng/mL, 24 h. As for the experimental part: To model OA in the microJoint, the pro-inflammatory cytokine interleukin (IL)-1β (10 ng/mL) was used to stimulate synovial cells for 24 h. Afterwards, IL-1β was withdrawn and inflamed synovium-conditioned medium was perfused through cartilage and FP tissues. […] M0/M1 macrophages can be introduced into the different tissues to investigate their interactions with other cells and implications on OA pathologies.
Different engineered joint tissues, including osteochondral complex (bone and cartilage), synovium, and fat pad were prepared as modules for convenient integration in the bioreactor. After maturation, they were integrated into a bioreactor (FIG. 28). Their interconnection was guided via directional fluidic flow of the culture medium to simulate in vivo physiology (FIG. 29). The bioreactors and accessories were manufactured by 3D printing. Micro-tissues were engineered by encapsulating P5 human MSCs in UV-photocrosslinked 15% methacrylated gelatin (GelMA), and differentiating and maturing them in different types of induction media. The health of individual tissues was assessed by real-time polymerase chain reaction (RT-PCR), histology and enzyme-linked immunosorbent assay (ELISA).

In the case of `CC(=O)[C@H]1CC[C@H]2[C@@H]3CCC4=CC(=O)CC[C@]4(C)[C@H]3CC[C@]12C` [progesterone], in assay [1], the “cartilage anabolic markers, progesterone added” value is on record as “downregulation is still present”. Regarding “IL-1β: pro-inflammatory cytokine interleukin (IL)-1β used to stimulate synovial cells”, in assay [2], the “expression levels of major catabolic genes in SM” value is recorded as “significantly upregulated”.
